Data published in US20080051438A1, “Preventive/Therapeutic Compositions Useful for Treating Cardiovascular Diseases” (priority 2006, published 2008).

Legend:
Format in all cases: in vivo, human
[1] = test system: hypertensive patients; experiment: Special investigation of combined use of cilnidipine and ARB: degree of the blood pressure controls judged by the doctor (efficacy ratio); parameters: concentration or dose not given beside the values; conditions: named ARB alone, then cilnidipine additionally administered, kind of ARB unchanged; blood pressure control in the 12th week
Protocol: (§1) A special investigation was conducted in various medical centers, compiled, and analyzed to evaluate the safety and availability of the combined use of cilnidipine and at least one angiotensin II receptor blocker.
(§2) The subjects of the investigation were hypertensive patients which were adapted to cilnidipine. Combined administration of cilnidipine and ARB was started for the treatment of hypertension in these patients.
(§3) A prospective continuous investigation method was conducted. Such a method is continuously conducted with the registered cases with the combined administration of cilnidipine (Atelec®) and ARB, until the number of cases reaches the contracted cases for each center.
(§4) Regarding the administration method of cilnidipine, 5 to 10 mg of cilnidipine was orally administered after breakfast once a day. Meanwhile, the amount may increase or decrease depending on patient's age, symptoms, or the like. When the effect is insufficient, the amount can be increased to 20 mg once a day. The dosing period of cilnidipine was set to 12 weeks in principle.
(§5) The following items were tracked during the investigation: patient's background (sex), existence or nonexistence of previous therapeutic agents and the content thereof, targeted blood pressure (systolic BP/diastolic BP), the conditions of administration of cilnidipine and ARB, antihypertensives used in combination (those other than cilnidipine or ARB), clinical course (systolic BP/diastolic BP/heart rate), and occurrence of side-effects. As for the availability of the combined administration, in the 12th week after starting the combined administration, the doctor in attendance judged the degree of the blood pressure controls on a three-point scale of “well-controlled”, “nearly well-controlled” and “poorly-controlled”, referring to the changes in the systolic and diastolic BP. As for the safety and availability analysis for each patient background, Fisher's exact probability test or the X^2 test was used. As for the blood pressure and heart rate, the average value and the standard deviation were calculated for the subjects before the combined administration (within 4 weeks before starting the combined administration), and data after starting the combined administration were determined on each observation day, and analysis was conducted by using a paired t-test. The test was conducted as the two-sided test and less than 5% of the risk rate was regarded as significant. Furthermore, side-effects were compiled based on the naming of preferred terms (PT) of MedDRA/J ver 8.0.
As the index of availability, in the 12th week after starting the combined administration, the doctor in attendance judged the degree of the blood pressure controls on a three-point scale of “well-controlled”, “nearly well-controlled” and “poorly-controlled”.
(1) Among the 2919 cases in the availability analysis, 42 cases in which the degree of the blood pressure controls was not described, and 168 cases which could not be judged, were excluded. In the other 2709 cases, the ratio of number of cases judged as “nearly well-controlled” or higher was calculated as the efficacy ratio. Accordingly, the efficacy ratio of the subject cases in the availability analysis was 84.8% (2298 cases/2709 cases).

[2] = test system: hypertensive patients; experiment: Special investigation of combined use of cilnidipine and ARB: changes in systolic and diastolic blood pressure
Protocol: as §1, §2, §3, §4, §5
Table 7 and FIG. 2 show the number of cases for which the blood pressure was measured, and the changes in the measured values of systolic BP, diastolic BP, and heart rate were measured at the following time points: before starting the combined administration, 4 weeks, 8 weeks, and 12 weeks after starting the combined administration, and the last measurement, […] administration, n=2919). […] Then, it continued to slowly decrease, and the a stable change was seen up to 12 weeks after the start.

[3] = test system: hypertensive patients; experiment: Special investigation of combined use of cilnidipine and ARB: changes in heart rate; conditions: for heart rate (beat/min.) last meas., ave.: named ARB + 10 mg cilnidipine after switch from 5 mg amlodipine, 12 weeks or later to the last measurement; for heart rate (beat/min.) last meas.: named ARB + cilnidipine 10 mg, last measurement; for heart rate (beat/min.) last meas. / heart rate (beat/min.) start. admin., ave. / heart rate (beat/min.) start admin.: doses unchanged; for heart rate (beat/min.) 12th wk aft admin.: named ARB + cilnidipine only, 12 weeks after starting the combined administration; for heart rate (beat/min.) start. admin., ave.: on named ARB + 5 mg amlodipine, at switch of amlodipine to 10 mg cilnidipine; for heart rate (beat/min.) start admin.: on named ARB alone (candesartan 8, valsartan 80, losartan 50, telmisartan 40 mg) at start of adding cilnidipine 10 mg; for heart rate (beat/min.) upon start. admin.: on named ARB alone, before cilnidipine was additionally administered
Protocol: as §1, §2, §3, §4, §5
Table 7 and FIG. 2 show the number of cases for which the blood pressure was measured, and the changes in the measured values of systolic BP, diastolic BP, and heart rate were measured at the following time points: before starting the combined administration, 4 weeks, 8 weeks, and 12 weeks after starting the combined administration, and the last measurement, which was 222.43 days in average from the start of the combined administration, n=2919). […] Then, it continued to slowly decrease, and the a stable change was seen up to 12 weeks after the start.

[4] = named ARB + 10 mg cilnidipine after switch from 5 mg amlodipine, 12 weeks or later to the last measurement
[5] = named ARB + cilnidipine 10 mg, doses unchanged, last measurement, 211.43 ± 133.43 day after starting the combined use
[6] = named ARB + cilnidipine only, 12 weeks after starting the combined administration
[7] = on named ARB + 5 mg amlodipine, at switch of amlodipine to 10 mg cilnidipine, doses unchanged
[8] = on named ARB alone (candesartan 8, valsartan 80, losartan 50, telmisartan 40 mg) at start of adding cilnidipine 10 mg, doses unchanged
[9] = on named ARB alone, before cilnidipine was additionally administered

SMILES | efficacy ratio (%) [1] [%] | diastolic BP [2, 4] [mmHg] | systolic BP [2, 4] [mmHg] | diastolic BP [2, 5] [mmHg] | systolic BP [2, 5] [mmHg] | diastolic BP [2, 6] [mmHg] | systolic BP [2, 6] [mmHg] | diastolic BP [2, 7] [mmHg] | systolic BP [2, 7] [mmHg] | diastolic BP [2, 8] [mmHg] | systolic BP [2, 8] [mmHg] | diastolic BP [2, 9] [mmHg] | systolic BP [2, 9] [mmHg] | heart rate (beat/min.) last meas., ave. [3] [beat/min.] | heart rate (beat/min.) last meas. [3] [beat/min.] | heart rate (beat/min.) 12th wk aft admin. [3] [beat/min.] | heart rate (beat/min.) start. admin., ave. [3] [beat/min.] | heart rate (beat/min.) start admin. [3] [beat/min.] | heart rate (beat/min.) upon start. admin. [3] [beat/min.]
CCCCc1nc(Cl)c(CO)n1Cc1ccc(-c2ccccc2-c2nn[nH]n2)cc1 [losartan] | 89.8 | 79.78 | 138.22 | 79.32 ± 9.82 | 137.74 ± 15.19 | 79.45 ± 9.20 | 139.52 ± 14.43 | 82.00 | 150.35 | 90.40 ± 10.35 | 161.84 ± 16.13 | 88.67 ± 9.91 | 160.78 ± 14.13 | 72.44 | 73.66 ± 9.49 | 73.95 ± 7.68 | 72.00 | 74.13 ± 8.98 | 73.81 ± 8.29
CCCc1nc(C(C)(C)O)c(C(=O)O)n1Cc1ccc(-c2ccccc2-c2nnn[nH]2)cc1 [olmesartan] | 100.0 |  |  |  |  |  |  |  |  |  |  |  |  |  |  |  |  |  | 
CCOc1nc2cccc(C(=O)O)c2n1Cc1ccc(-c2ccccc2-c2nnn[nH]2)cc1 [candesartan] | 85.5 | 78.58 | 140.96 | 79.81 ± 12.72 | 141.02 ± 17.36 | 79.81 ± 12.72 | 141.29 ± 17.02 | 82.90 | 152.10 | 89.59 ± 14.80 | 164.98 ± 16.35 | 89.59 ± 14.80 | 163.78 ± 17.52 | 72.58 | 72.47 ± 11.14 | 72.66 ± 11.86 | 75.54 | 74.19 ± 10.96 | 75.14 ± 11.48
CCCc1nc2c(C)cc(-c3nc4ccccc4n3C)cc2n1Cc1ccc(-c2ccccc2C(=O)O)cc1 [telmisartan] | 88.0 | 83.08 | 147.23 | 80.49 ± 12.78 | 138.89 ± 15.89 | 80.70 ± 11.71 | 143.64 ± 12.53 | 86.15 | 155.00 | 93.52 ± 10.84 | 163.00 ± 17.32 | 90.94 ± 12.27 | 161.33 ± 12.62 | 71.00 | 72.12 ± 9.42 | 73.09 ± 9.29 | 70.00 | 74.24 ± 11.55 | 74.95 ± 12.70
CCCCC(=O)N(Cc1ccc(-c2ccccc2-c2nnn[nH]2)cc1)[C@H](C(=O)O)C(C)C [valsartan] | 86.0 | 80.74 | 140.67 | 80.62 ± 10.40 | 140.75 ± 15.61 | 79.31 ± 10.42 | 138.32 ± 14.28 | 89.36 | 158.15 | 91.43 ± 11.20 | 160.65 ± 16.04 | 91.50 ± 10.58 | 160.65 ± 15.20 | 75.86 | 72.89 ± 10.20 | 71.65 ± 9.38 | 77.18 | 74.08 ± 10.41 | 73.22 ± 9.51
